One assay deals with CKIδ wild type (Homo sapiens, UniProt P48730). Description: CK1δ kinase assay (Kinase-Glo). Type of assay: biochemical. The conditions noted are these: 10 μM ATP, 2 nM CKIδ, 85 min at 25° C.; read-out: CK1 δ IC50. The method, then:
The CK1δ kinase assay was performed in a 40 μl final volume in buffer containing 50 mM Tris, pH 7.5, 10 mM MgCl2, 1 mM dithiothreitol, 100 μg/mL BSA with 10 μM ATP, 2 nM CKIδ wild type, and 42 μM peptide substrate PLSRTLp[…] (Flotow et al., 1990) in the presence of 1 μl of CKIδ inhibitor or 4% DMSO. The reaction was incubated for 85 min at 25° C.; detection was carried out as described for the Kinase-Glo Assay (Promega). Luminescent output was measured on the Perkin Elmer Envision plate reader (PerkinElmer, Waltham, Mass.).
(In general: Kinase-Glo measures the ATP left after a reaction by luminescence.)

The target of the next assay is CKI ε wild type (Homo sapiens, UniProt P49674). In words: CK1ε kinase assay (Kinase-Glo). In kind it is biochemical. The conditions noted are these: 10 μM ATP, 2.5 nM CKI ε, 70 min at 25° C.; read-out: CK1 ε:IC50. On the procedure:
The CK1ε kinase assay was performed in a 40-μl final volume in buffer containing 50 mM Tris, pH 7.5, 10 mM MgCl2, 1 mM dithiothreitol, 100 μg/mL BSA with 10 μM ATP, 2.5 nM CKI ε wild type, and 42 μM peptide substrate PLSRTLp[…] (Flotow et al., 1990) in the presence of 1 μl of CKI ε inhibitor or 4% DMSO. The reaction was incubated for 70 min at 25° C.; detection was carried out as described for the Kinase-Glo Assay (Promega). Luminescent output was measured on the Perkin Elmer Envision plate reader (PerkinElmer, Waltham, Mass.).

For assay [1], the target named is T1, human CK1δ (Cos 7 cells cotransfected with mouse Per3-GFP) (Homo sapiens, UniProt P48730).
T1 construct: His tag of the vector pcDNA4/hisA (only the vector name is printed); expressed in transfected cells; host or cells: Cos 7 cells
T1 sequence (P48730 whole entry): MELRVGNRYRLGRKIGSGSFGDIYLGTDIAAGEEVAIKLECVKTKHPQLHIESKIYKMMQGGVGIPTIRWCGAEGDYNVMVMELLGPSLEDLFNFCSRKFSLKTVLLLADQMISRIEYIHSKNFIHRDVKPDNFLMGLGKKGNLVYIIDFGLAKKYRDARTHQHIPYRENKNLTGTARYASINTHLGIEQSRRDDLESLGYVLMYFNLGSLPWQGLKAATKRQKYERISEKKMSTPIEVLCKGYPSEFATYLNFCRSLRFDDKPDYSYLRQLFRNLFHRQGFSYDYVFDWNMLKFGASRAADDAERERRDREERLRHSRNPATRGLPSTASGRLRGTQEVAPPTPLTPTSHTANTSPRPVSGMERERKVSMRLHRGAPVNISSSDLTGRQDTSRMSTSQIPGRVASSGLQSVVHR
Description: CK1 WCA HCS nuclear translocation assay (CK1δ). In kind it is cell-based. The conditions noted are these: inhibition of mPer3-GFP translocation to the nucleus, overnight exposure, read-out: CK1 δ WCA EC50. On the procedure: CK1 WCA HCS Nuclear Translocation Assay.
Cos 7 cells were maintained at 37° C. in 5% CO2 in Dulbecco's Modified Eagle Medium (Gibco 11995) supplemented with 10% fetal bovine serum. Log-phase cells were dislodged with 5 min treatment of TrypLE Express (Gibco 12605) and viable cell count was determined with Cedex cell counter. Cells were diluted in DMEM medium to a density of 1.5e5 viable cells/mL in ⅔ of the final volume of final transfected cell mix. Cells were cotransfected with two plasmid DNAs, mouse Per3-GFP (green fluorescent protein) in pd2EGFP-N1 vector and human CKI in pcDNA4/hisA vector (for CK1Epsilon at a ratio of 1:5 respectively; for CK1δ at a ratio of 1:11 respectively), using Lipofectamine 2000 reagent (Invitrogen) according to the manufacturer's recommendations. The transfection mix contained approximately 0.83 μg/mL of DNA and 6 μL/mL of Lipofectamine 2000, in a total of ⅓ of the final transfection volume in Opti-MEM I medium (Invitrogen). After 20 min at rt, the cell mix was combined with the DNA transfection mix, per manufacturer instructions. 50 μL of the transfected cell suspension was dispensed per well by multidrop dispenser into Greiner 384-well Cellcoat (PDL) plates (Greiner #781946).
Compounds were solubilized in 100% DMSO, diluted with Opti-MEM I to a 4× concentration before addition to plated cells. After overnight exposure at 37° C. in a CO2 incubator, cells were fixed by the addition of 12% paraformaldehyde (Electron Microscopy Sciences, Hatfield, Pa.) in phosphate-buffered saline (PBS) with 20% sucrose to a final concentration of 4%, and then the cells were incubated for 30 min at rt. Fixative was removed, and cells were washed with PBS and then stained with 0.4 μg/ml Hoechst dye (Invitrogen) in blocking buffer containing 4% goat serum (Vector Labs s-1000) and 0.1% TritonX (Sigma T8787) for 1 h. Cells were washed again with PBS and stored at 4° C. in PBS or scanned immediately with the Cellomics ArrayScan VTI. CKIδ dependent nuclear localization of the GFP-tagged mPer3 protein was quantitated using the Cellomics ArrayScan VTI system utilizing the Cytoplasm to Nucleus translocation bioapplication to calculate the Nuclear-Cytoplasmic Intensity difference. Inhibitors of CK1 δ/ε were tested across a dose response curve to evaluate their ability to inhibit mPer3-GFP translocation to the nucleus. Cells with a total intensity of mPER3:GFP expression equal to or greater than 20,000 are included in analysis.

Our source for the IC50 and EC50 values is patent publication US8536164B2, “Fused pyridine compounds as casein kinase inhibitors” (Pfizer Inc., priority 2010, dated 2013).

pEC50, pIC50: −log10 of the molar value.

CKIδ wild type, sequence (P48730 whole entry): as above
CKI ε wild type, sequence (P49674 whole entry): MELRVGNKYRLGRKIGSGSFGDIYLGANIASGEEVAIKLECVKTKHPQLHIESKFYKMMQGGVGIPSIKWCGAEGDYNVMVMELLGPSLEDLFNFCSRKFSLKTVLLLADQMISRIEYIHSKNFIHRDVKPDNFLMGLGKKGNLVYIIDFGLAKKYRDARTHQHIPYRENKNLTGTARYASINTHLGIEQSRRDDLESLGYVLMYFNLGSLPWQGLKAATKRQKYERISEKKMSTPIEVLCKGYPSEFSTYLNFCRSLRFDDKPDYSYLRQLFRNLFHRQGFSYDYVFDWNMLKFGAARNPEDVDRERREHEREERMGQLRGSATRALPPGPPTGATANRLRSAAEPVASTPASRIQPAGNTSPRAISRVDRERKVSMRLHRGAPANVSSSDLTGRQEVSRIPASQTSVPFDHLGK

Consider `Cn1cc(-c2ccnc3c2C(=O)N(Cc2ccccc2)C3)c(-c2ccc(F)cc2)n1` [Example 5, 6-benzyl-4-[3-(4-fluorophenyl)-1-methyl-1H-pyrazol-4-yl]-6,7-dihydro-5H-pyrrolo[3,4-b]pyridin-5-one], for which the negative logarithm of the IC50 (pIC50) is 8.22 on CKIδ wild type and 7.41 on CKI ε wild type. The pEC50 in assay [1] is 7.79.

On to `Cn1cc(-c2ccnc3c2CN(Cc2ccccc2)C3)c(-c2ccc(F)cc2)n1` [Example 6, 6-benzyl-4-[3-(4-fluorophenyl)-1-methyl-1H-pyrazol-4-yl]-6,7-dihydro-5H-pyrrolo[3,4-b]pyridine], for which the pIC50 on CKIδ wild type is 7.21; at CKI ε wild type, 6.53. Also, the pEC50 in assay [1] is 6.69.

Consider `Cn1cc(-c2ccnc3c2CCC3)c(-c2ccc(F)cc2)n1` [Example 23, 4-[3-(4-fluorophenyl)-1-methyl-1H-pyrazol-4-yl]-6,7-dihydro-5H-cyclopenta[b]pyridine], for which the figures for the pIC50 on CKIδ wild type and on CKI ε wild type were 7.60 and 6.80, respectively. Moreover, the pEC50 in assay [1] was 6.67.

Consider `Cn1cc(-c2ccnc3c2CCC3O)c(-c2ccc(F)cc2)n1` (stereo not drawn) [Example 24, 4-[3-(4-fluorophenyl)-1-methyl-1H-pyrazol-4-yl]-6,7-dihydro-5H-cyclopenta[b]pyridin-7-ol], for which the negative-log IC50 (pIC50) at CKIδ wild type was 7.55; on CKI ε wild type, 6.83. In assay [1], the pEC50 was 6.58.

For `CNC1CCc2c(-c3cn(C)nc3-c3ccc(F)cc3)ccnc21` (stereo not drawn) [Example 25, 4-[3-(4-fluorophenyl)-1-methyl-1H-pyrazol-4-yl]-N-methyl-6,7-dihydro-5H-cyclopenta[b]pyridin-7-amine], the pIC50 on CKIδ wild type is 7.76; at CKI ε wild type it was 7.08. Besides, in assay [1], the pEC50 is 7.22.

As to `Cn1cc(CN2Cc3nccc(-c4cn(C)nc4-c4ccc(F)cc4)c3C2=O)cn1` [Example 26, 4-[3-(4-fluorophenyl)-1-methyl-1H-pyrazol-4-yl]-6-[(1-methyl-1H-pyrazol-4-yl)methyl]-6,7-dihydro-5H-pyrrolo[3,4-b]pyridin-5-one], the results for the pIC50 on CKIδ wild type and on CKI ε wild type were 7.65 and 6.91, respectively. For the same compound, the pEC50 in assay [1] is 6.90.

Take `Cn1cc(-c2ccnc3c2C(=O)N(CC2CCOC2)C3)c(-c2ccc(F)cc2)n1` (stereo not drawn) [Example 27, 4-[3-(4-fluorophenyl)-1-methyl-1H-pyrazol-4-yl]-6-(tetrahydrofuran-3-ylmethyl)-6,7-dihydro-5H-pyrrolo[3,4-b]pyridin-5-one]: the pIC50 on CKIδ wild type is 7.45; on CKI ε wild type it was 6.68. Moreover, in assay [1], the pEC50 is 6.43.

As for `Cc1cc(CN2Cc3nccc(-c4cn(C)nc4-c4ccc(F)cc4)c3C2=O)nn1C` [Example 28, 6-[(1,5-dimethyl-1H-pyrazol-3-yl)methyl]-4-[3-(4-fluorophenyl)-1-methyl-1H-pyrazol-4-yl]-6,7-dihydro-5H-pyrrolo[3,4-b]pyridin-5-one], the pIC50 is 7.80 on CKIδ wild type and 7.06 on CKI ε wild type. The negative-log EC50 (pEC50) in assay [1] is 7.18.

Take `COCCCN1Cc2nccc(-c3cn(C)nc3-c3ccc(F)cc3)c2C1=O` [Example 29, 4-[3-(4-fluorophenyl)-1-methyl-1H-pyrazol-4-yl]-6-(3-methoxypropyl)-6,7-dihydro-5H-pyrrolo[3,4-b]pyridin-5-one]: the pIC50 at CKIδ wild type is 7.58; at CKI ε wild type it was 6.88. In addition, the negative-log EC50 (pEC50) in assay [1] was 6.66.

Consider `Cn1cc(-c2ccnc3c2C(=O)N(CCOC(C)(C)C)C3)c(-c2ccc(F)cc2)n1` [Example 30, 6-(2-tert-butoxyethyl)-4-[3-(4-fluorophenyl)-1-methyl-1H-pyrazol-4-yl]-6,7-dihydro-5H-pyrrolo[3,4-b]pyridin-5-one], for which the pIC50 on CKIδ wild type is 7.56; on CKI ε wild type it was 6.83. Besides, the pEC50 in assay [1] was 6.80.

Turning to `COC(=O)C1(N2Cc3nccc(-c4cn(C)nc4-c4ccc(F)cc4)c3C2=O)CC1` [Example 31, methyl 1-{4-[3-(4-fluorophenyl)-1-methyl-1H-pyrazol-4-yl]-5-oxo-5,7-dihydro-6H-pyrrolo[3,4-b]pyridin-6-yl}cyclopropanecarboxylate], the negative logarithm of the IC50 (pIC50) at CKIδ wild type was 7.32; at CKI ε wild type, 6.73. Further, in assay [1], the pEC50 is 6.52.

The term pIC50 denotes −log10 of the IC50, conventionally taken in molar units. Usually pEC50 stands for −log10 of the EC50, conventionally taken in molar units.
